Laboratory results published in patent US7964732B2, “Substituted bicyclocarboxyamide compounds” (Pfizer Inc., priority 2006, dated 2011).

Key:
[1] = target: T1, human VR1 (Homo sapiens, UniProt Q8NER1); assay: Human VR1 antagonist assay (Ca2+ imaging assay using human VR1 highly expressing cells); assay type: cell-based; conditions: intracellular Ca2+ imaging (fura-2)
T1 construct: host or cells: cells that express human VR1 receptors (cell type not specified)
Text: VR1 antagonistic activity can be determined by the Ca^2+ imaging assay using human VR1 highly expressing cells. The cells that highly express human VR1 receptors are obtainable from several different conventional methods. The one standard method is cloning from human Dorsal Root Ganglion (DRG) or kidney according to the methods such as described in the journal article; Nature, 389, pp 816-824, 1997. Alternatively VR1 receptors highly expressing human keratinocytes are also known and published in the journal article (Biochemical and Biophysical Research Communications, 291, pp 124-129, 2002). […] Furthermore, the method to up regulate human VR1 gene, which is usually a silent gene or don't produce detectable level of VR1 receptors, is also available to obtain propriety cells. Such genetic modification method was described in detail; Nat. Biotechnol., 19, pp 440-445, 2001.
The cells that express human VR1 receptors were maintained in culture flask at 37° C. in an environment containing 5% CO2 until use in the assay. The intracellular Ca^2+ imaging assay to determine VR1 antagonistic activities were done by following procedures.
The culture medium was removed from the flask and fura-2/AM fluorescent calcium indicator was added to the flask at a concentration of 5 μM in the medium. The flask was placed in CO2 incubator and incubated for 1 hour. Then the cells expressing the human VR1 receptors were detached from the flask follow by washing with phosphate buffer saline, PBS(−) and re-suspended in assay buffer. The 80 μl of aliquot of cell suspension (3.75×10^5 cells/ml) was added to the assay plate and the cells were spun down by centrifuge (950 rpm, 20° C., 3 minutes).
Compounds of the examples were tested in the Human VR1 antagonist assay described above.
The capsaicin-induced changes in the intracellular calcium concentration were monitored using FDSS 6000 (Hamamatsu Photonics, Japan), a fluorometric imaging system. The cell suspension in Krebs-Ringer HEPES (KRH) buffer (115 mM NaCl, 5.4 mM KCl, 1 mM MgSO4, 1.8 mM CaCl2, 11 mM D-Glucose, 25 mM HEPES, 0.96 mM Na2HPO4, pH 7.3) were pre-incubated with varying concentrations of the test compounds or KRH buffer (buffer control) for 15 minutes at room temperature under the dark condition. Then capsaicin solution, which gives 300 nM in assay mixture, was automatically added to the assay plate by the FDSS 6000.
The Acid-induced changes in the intracellular calcium concentration were monitored using FDSS 6000 (Hamamatsu Photonics, Japan), a fluorometric imaging system. The cell suspension in resting buffer (HBSS supplemented with 10 mM HEPES, pH 7.4) were pre-incubated with varying concentrations of the test compounds or resting buffer (buffer control) for 15 minutes at room temperature under the dark condition. The cells were automatically added the stimulating solution (HBSS supplemented with MES, final assay buffer pH5.8) by the FDSS 6000.
The monitoring of the changes in the fluorescence signals (λex=340 nm/380 nm, λem=510-520 nm) was initiated at 1 minute prior to the addition of capsaicin solution or acidic buffer and continued for 5 minute.

[2] = target: T1, human VR1; assay: Determination of pA2 values against capsaicin stimulation (Ca2+ imaging, FLIPR TETRA, Schild analysis); assay type: cell-based; conditions: against capsaicin agonist dose-response
Experimental: pA2 values of antagonists against the capsaicin agonist dose-response were determined using a Ca^2+ imaging assay with cells expressing high levels of human VR1 (for explanation of theory behind pA2 determinations, see A Pharmacological Primer: Theory, Applications, and Methods 2nd edition by Terry P. Kenakin, pp. 102-108, Academic Press, New York, 2006). Cells that express high levels of VR1 were obtained by generation of a cell line from […] with heterologous expression of VR1 under control of an inducible promoter. Specifically, cells expressing human VR1 under the control of the human cytomegalovirus immediate-early (CMV) promoter and two tetracycline operator 2 (TetO2) sites were made using the T-REx System (Invitrogen, Carlsbad, Calif., USA). Details and methods concerning this system are published (Hum. Gene Ther. 9, pp. 1939-1950, 1998; Annu. Rev. Microbiol. 48, pp. 345-369, 1994; Mol. Biol. 169, pp. 707-721, 1983). VR1 was subcloned into the T-REx System pcDNA5/TO vector (Invitrogen Cat# V1033-20) which was transfected into the T-REx System […] cell line (Invitrogen Cat# R710-07) from which a stable cell line was established which express VR1 after induction by exposure to tetracycline or doxycycline (Hum. Gene Ther. 9, pp. 1939-1950, 1998; instructions that come with purchase of products noted above). […]
For assay preparation, cells expressing human VR1 as described above were plated in 96-well plates (Becton Dickinson [BD] poly-D-lysine coated 96-well plates, cat#356692) at 55,000 cells per well in culture media (described above) that also contains 1 ug/ml doxycycline. […] Changes in the fluorescence signal (λex=470-495 nm, λem=515-575 nm) were monitored throughout the experiment before agonist addition and for at least 2 min after agonist addition (enough time for the fluorescence response to reach and then decline from the absolute maximum, agonist-induced signal attained). […]

T1 sequence (Q8NER1 whole entry): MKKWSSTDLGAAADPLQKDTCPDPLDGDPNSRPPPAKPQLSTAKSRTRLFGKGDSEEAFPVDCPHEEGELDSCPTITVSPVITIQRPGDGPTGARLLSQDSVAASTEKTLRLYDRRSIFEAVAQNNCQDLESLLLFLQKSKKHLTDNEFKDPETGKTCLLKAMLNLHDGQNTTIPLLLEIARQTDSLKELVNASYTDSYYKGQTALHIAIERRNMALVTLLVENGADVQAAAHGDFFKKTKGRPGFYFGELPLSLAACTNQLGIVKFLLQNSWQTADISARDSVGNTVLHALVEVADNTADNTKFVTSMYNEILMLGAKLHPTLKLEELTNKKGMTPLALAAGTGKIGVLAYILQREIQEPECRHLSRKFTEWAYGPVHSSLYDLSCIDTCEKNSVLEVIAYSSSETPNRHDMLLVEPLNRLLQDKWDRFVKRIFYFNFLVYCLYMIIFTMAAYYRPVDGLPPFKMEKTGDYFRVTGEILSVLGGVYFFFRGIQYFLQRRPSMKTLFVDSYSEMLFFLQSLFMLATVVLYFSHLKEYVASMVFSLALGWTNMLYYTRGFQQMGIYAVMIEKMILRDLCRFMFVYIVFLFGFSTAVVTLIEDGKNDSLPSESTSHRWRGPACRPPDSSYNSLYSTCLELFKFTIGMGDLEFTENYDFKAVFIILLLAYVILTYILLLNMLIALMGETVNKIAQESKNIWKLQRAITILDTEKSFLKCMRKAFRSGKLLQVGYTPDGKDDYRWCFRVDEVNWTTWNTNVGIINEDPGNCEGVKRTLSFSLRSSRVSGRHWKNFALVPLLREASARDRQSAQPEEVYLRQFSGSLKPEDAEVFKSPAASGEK

IC50 [1] [nM]	Kb ([2]; pre-incubation 2 mins) [nM]	Kb ([2]; pre-incubation 30 mins) [nM]	Compound
25.2	1.74		Cc1c([C@@H](C)NC(=O)c2ccc3nc(C(C)(C)C(F)(F)F)ccc3c2)cnn1C [Example 1]
26.6	1.86		Cc1c([C@@H](C)NC(=O)c2ccc3nc(C(C)(C)C(F)(F)F)ccc3c2)cnn1CC(F)(F)F [Example 6, N-((1R)-1-(5-methyl-1-(2,2,2-trifluoroethyl)-1H-pyrazol-4-yl)ethyl)-2-(2,2,2-trifluoro-1,1-dimethylethyl)quinoline-6-carboxamide]
124			Cc1c(C(C)NC(=O)c2ccc3nc(C(C)(C)C(F)(F)F)ccc3c2)cnn1C1CCC1 (centres unmarked) [Example 17]
18		5.25	C[C@H](NC(=O)c1ccc2nc(C(C)(C)C(F)(F)F)ccc2c1)c1cnn(C)c1Cl [Example 18]
3			C[C@@H](NC(=O)c1ccc2nc(C(C)(C)C(F)(F)F)ccc2c1)c1cnn(C)c1Cl [Example 18a, (R)-N-(1-(5-chloro-1-methyl-1H-pyrazol-4-yl)ethyl)-2-(2,2,2-trifluoro-1,1-dimethylethyl)quinoline-6-carboxamide]
121			Cc1c([C@@H](C)NC(=O)c2ccc3nc(C(F)(F)F)ccc3c2)cnn1C [Example 23, (R)-N-(1-(1,5-dimethyl-1H-pyrazol-4-yl)ethyl)-2-(trifluoromethyl) quinoline-6-carboxamide]
23			Cc1c(C(C)NC(=O)c2ccc3cc(C(C)(C)C)ccc3c2)cnn1C (centres unmarked) [Example 24, 6-tert-butyl-N-[1-(1,5-dimethyl-1H-pyrazol-4-yl)ethyl]-2-naphthamide]
118			Cc1n[nH]c(C)c1CNC(=O)c1ccc2cc(C(C)(C)C)ccc2c1 [Example 25, 6-tert-butyl-N-[(3,5-dimethyl-1H-pyrazol-4-yl)methyl]-2-naphthamide]
443			Cc1nn(C)cc1CNC(=O)c1ccc2cc(C(C)(C)C)ccc2c1 [Example 26, 6-tert-butyl-N-[(1,3-dimethyl-1H-pyrazol-4-yl)methyl]-2-naphthamide]
73			Cc1c(CNC(=O)c2ccc3cc(C(C)(C)C)ccc3c2)cnn1C [Example 27, 6-tert-butyl-N-[(1,5-dimethyl-1H-pyrazol-4-yl)methyl]-2-naphthamide]
57.4			CCC(NC(=O)c1ccc2cc(C(C)(C)C)ccc2c1)c1cnn(C)c1C (centres unmarked) [Example 28, 6-tert-butyl-N-(1-(1,5-dimethyl-1H-pyrazol-4-yl)propyl)-2-naphthamide]
189			Cc1c(C(C)NC(=O)c2ccc3cc(C(F)(F)F)ccc3c2)cnn1C (centres unmarked) [Example 29, N-(1-(1,5-dimethyl-1H-pyrazol-4-yl)ethyl)-6-(trifluoromethyl)-2-naphthamide]
20.1			Cc1c([C@@H](C)NC(=O)c2ccc3cc(C4(C)CC4)ccc3c2)cnn1C [Example 30, N-[(1R)-1-(1,5-dimethyl-1H-pyrazol-4-yl)ethyl]-6-(1-methylcyclopropyl)-2-naphthamide]
3190			Cc1c([C@@H](C)NC(=O)c2ccc3cc([C@](C)(O)C(F)(F)F)ccc3c2)cnn1C [Example 32a, N-[(1R)-1-(1,5-dimethyl-1H-pyrazol-4-yl)ethyl]-6-[(1S)-2,2,2-trifluoro-1-hydroxy-1-methylethyl]-2-naphthamide]
139			COC(C)(c1ccc2cc(C(=O)NC(C)c3cnn(C)c3C)ccc2c1)C(F)(F)F (centres unmarked) [Example 33, N-[1-(1,5-dimethyl-1H-pyrazol-4-yl)ethyl]-6-(2,2,2-trifluoro-1-methoxy-1-methylethyl)-2-naphthamide]
254			Cc1c(CNC(=O)c2ccc3cc(C(C)(C)C)ccc3n2)cnn1C [Example 34, 6-tert-butyl-N-[(1,5-dimethyl-1H-pyrazol-4-yl)methyl]quinoline-2-carboxamide]
1870			Cc1nn(C)c(C)c1CNC(=O)c1ccc2cc(C(C)(C)C)ccc2c1 [Example 35, 6-tert-butyl-N-((1,3,5-trimethyl-1H-pyrazol-4-yl)methyl)-2-naphthamide]
3480			Cn1cc(CNC(=O)c2ccc3cc(C(C)(C)C)ccc3c2)cn1 [Example 36]
1000			Cc1c(C(C)NC(=O)c2ccc3cc(C(C)(C)O)ccc3c2)cnn1C (centres unmarked) [Example 37, N-[1-(1,5-dimethyl-1H-pyrazol-4-yl)ethyl]-6-(1-hydroxy-1-methylethyl)-2-naphthamide]
237 to 455			Oc1cc2c(cc1O)CN(C(=S)NCCc1ccc(Cl)cc1)CCC2 [capsazepin, reference compound]
